According to the supplement of paper PMC11424490:

Assays:
NCI-H2122 [1] = assay: relative IC50 of cell viability (CellTiter-Glo); higher = less potent
Protocol: (§1)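 CellTiter-Glo proliferation assay in KRAS G12C mutant NCI-H2122 (72 h), SW837 (144 h) and NCI-H358 cells in 384-well plates. Monotherapy dose response was fitted with a four-parameter curve after normalisation to DMSO controls (% of control, PoC). IC50 is the relative IC50, averaged over replicates. Bottom is the fitted lower plateau in %PoC; Max.Conc. is the top dose tested.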

SW837 [2] = assay: as above
Protocol: as §1

NCI-H2122 [3] = assay: fitted bottom plateau of viability curve, % of DMSO control; higher = less maximal inhibition; extreme values may be limits of the assay
Summary of the method: (§2)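 The NCI-H2122, SW837 and NCI-H358 cell lines were plated in 384-well format at 800, 500 and 500 cells/well respectively, in 60 µl. After a 24 h wait, single compounds were applied in dose series by acoustic dispensing, and plates were incubated 72 h, or 144 h in the case of SW837. Readout was CellTiter-Glo luminescence on an EnVision reader following 15 min shaking, normalised to DMSO controls. Both the relative IC50 (a mean over replicates) and the lower plateau derive from a four-parameter nonlinear fit.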

SW837 [4] = assay: as above
Summary of the method: as §2

NCI-H358 = assay: as above
Summary of the method: as §2

Row | SMILES | relative IC50 of cell viability (NCI-H2122 [1]) | relative IC50 of cell viability (SW837 [2]) | fitted bottom plateau of viability curve (NCI-H2122 [3]) | fitted bottom plateau of viability curve (SW837 [4]) | fitted bottom plateau of viability curve (NCI-H358)
1 | O=C(O)C(=O)O.[NH-][C@@H]1CCCC[C@H]1[NH-].[Pt+2] [Oxaliplatin] (top concentration tested 50000 nM) | 9200 nM | 5890 nM | 31.5% | 21% | 
2 | O=C(/C=C/N1C[C@H]2C[C@@H]1CN2c1ccccn1)c1ccccc1O [PFI-3] (top concentration tested 50000 nM) |  |  | 94% | 98.3% | 93.4%
3 | O=C(c1c(F)ccc(NS(=O)(=O)N2CC[C@@H](F)C2)c1F)c1c[nH]c2ncc(-c3cnc(C4CC4)nc3)cc12 [PLX8394] (top concentration tested 5000 nM) |  |  | 78.7% | 96.3% | 57.8%
4 | CC(=O)O[C@H]1C(=O)[C@@]2(C)[C@H]([C@H](OC(=O)c3ccccc3)[C@]3(O)C[C@H](OC(=O)[C@H](O)[C@@H](NC(=O)c4ccccc4)c4ccccc4)C(C)=C1C3(C)C)[C@]1(OC(C)=O)CO[C@@H]1C[C@@H]2O [Paclitaxel] (top concentration tested 100.01 nM) | 3.22 nM | 12.5 nM | 4.65% | 25.6% | 
5 | Cc1[nH]c2ccccc2c1CCNCc1ccc(/C=C/C(=O)NO)cc1 [Panobinostat] (top concentration tested 99.878 nM) | 16.4 nM | 20.9 nM | 11.3% | 0.651% | 
6 | C/C=C1\NC(=O)[C@H]2CSSCC/C=C/[C@H](CC(=O)N[C@H](C(C)C)C(=O)N2)OC(=O)[C@H](C(C)C)NC1=O [Romidepsin] (top concentration tested 10000 nM) | 5.65 nM | 76.4 nM | 0.385% | 0.0763% | 
7 | CC1(N)CCN(c2cnc(-c3cccc(Cl)c3Cl)c(N)n2)CC1 [SHP099] (top concentration tested 1000.1 nM) |  |  | 84.1% | 97% | 88.2%
8 | CC(C)(C)c1ccc(S(=O)(=O)NCc2ccc(C(=O)Nc3cccnc3)cc2)cc1 [STF-31] (top concentration tested 10000 nM) | 5790 nM | 6500 nM | 12.7% | 0% | 
9 | CC/C(=C(\c1ccccc1)c1ccc(OCCN(C)C)cc1)c1ccccc1 [Tamoxifen] (top concentration tested 10000 nM) |  |  | 66% | 88.6% | 67.9%
10 | CC(=O)Nc1cccc(-n2c(=O)n(C3CC3)c(=O)c3c(Nc4ccc(I)cc4F)n(C)c(=O)c(C)c32)c1 [Trametinib] (top concentration tested 1000 nM) | 21.7 nM | 33.4 nM | 3.01% | 11.6% | 
11 | CNCc1ccc(-c2cc(-c3nc(-c4ccc(S(=O)(=O)C(C)C)cc4)cnc3N)on2)cc1 [VE-822/VX-970] (top concentration tested 9999.9 nM) | 278 nM | 807 nM | 0.375% | 2.47% | 
12 | CC[C@]1(O)C[C@@H]2CN(CCc3c([nH]c4ccccc34)[C@@](C(=O)OC)(c3cc4c(cc3OC)N(C)[C@H]3[C@@](O)(C(=O)OC)[C@H](OC(C)=O)[C@]5(CC)C=CCN6CC[C@]43[C@@H]65)C2)C1 [Vinblastine] (top concentration tested 99.992 nM) | 4.34 nM | 80.2 nM | 4.54% | 0% | 
13 | CCC1=C[C@@H]2CN(C1)Cc1c([nH]c3ccccc13)[C@@](C(=O)OC)(c1cc3c(cc1OC)N(C)[C@H]1[C@@](O)(C(=O)OC)[C@H](OC(C)=O)[C@]4(CC)C=CCN5CC[C@]31[C@@H]54)C2 [Vinorelbine] (top concentration tested 100.01 nM) | 9.06 nM | 17.1 nM | 5.21% | 42.9% | 
14 | CN[C@H]1CN(c2ccc3c(=O)c(C(=O)O)cn(-c4nccs4)c3n2)C[C@@H]1OC [Vosaroxin] (top concentration tested 2500 nM) | 778 nM | 2310 nM | 34.3% | 0% | 
15 | Oc1nc(-c2ccc(C(F)(F)F)cc2)nc2c1CSCC2 [XAV939] (top concentration tested 50000 nM) |  |  | 81.5% | 89.3% | 88.7%
